In test [1] the target is galectin-3 (Homo sapiens, UniProt P17931). The test is described as follows: Fluorescence anisotropy assay, affinity for galectin-3. The test is classed as binding. The conditions noted are these: compound as inhibitor of the interaction between galectin and a fluorescein tagged saccharide probe; read-out: Gal-3 Kd. The protocol:
(§1) The affinity of Example 1-39 for galectins were determined by a fluorescence anisotropy assay where the compound was used as an inhibitor of the interaction between galectin and a fluorescein tagged saccharide probe as described Sarme, P., Kahl-Knutsson, B., Huflejt, M., Nilsson, U. J., and Leffler H. (2004) Fluorescence polarization as an analytical tool to evaluate galectin-ligand interactions. Anal. Biochem. 334: 36-47, (Sarme et al., 2004) and Monovalent interactions of Galectin-1 By Salomonsson, Emma; Larumbe, Amaia; Tejler, Johan; Tullberg, Erik; Rydberg, Hanna; Sundin, Anders; Khabut, Areej; Frejd, Torbjorn; Lobsanov, Yuri D.; Rini, James M.; et al, From Biochemistry (2010), 49(44), 9518-9532, (Salomonsson et al., 2010).
On the technique in general: Fluorescence polarisation rises when a labelled molecule tumbles more slowly, as on binding a larger partner.

The target of test [2] is galectin-1 (Homo sapiens, UniProt P09382). The test is described as follows: Fluorescence anisotropy assay, affinity for galectin-1. The conditions noted are these: compound as inhibitor of the interaction between galectin and a fluorescein tagged saccharide probe; read-out: Gal-1 Kd. The test is classed as binding. The protocol: as §1
galectin-1, sequence (P09382 whole entry): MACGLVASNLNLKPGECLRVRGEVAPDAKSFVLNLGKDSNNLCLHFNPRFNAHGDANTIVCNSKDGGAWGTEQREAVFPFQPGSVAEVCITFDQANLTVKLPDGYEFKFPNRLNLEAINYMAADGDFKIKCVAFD

As a reminder, the Kd is the free concentration of one partner at which half of the binding sites on the other are occupied at equilibrium, for simple one-to-one binding.

galectin-3, sequence (P17931 whole entry): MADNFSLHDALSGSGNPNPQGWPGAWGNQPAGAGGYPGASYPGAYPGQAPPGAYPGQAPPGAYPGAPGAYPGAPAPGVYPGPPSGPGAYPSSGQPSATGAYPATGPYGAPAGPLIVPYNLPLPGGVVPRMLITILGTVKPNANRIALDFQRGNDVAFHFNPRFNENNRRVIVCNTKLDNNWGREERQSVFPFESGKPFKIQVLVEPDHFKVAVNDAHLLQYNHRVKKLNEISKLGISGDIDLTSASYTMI

In the case of `OCC1O[C@@H](c2ccnn2-c2cc(Cl)ccc2C(F)(F)F)C(O)C(n2cc(-c3ncc(Cl)s3)nn2)[C@H]1O` (stereo partly drawn) [Example 10, 1-{5-{3-[4-(5-Chlorothiazol-2-yl)-1H-1,2,3-triazol-1-yl]-3-deoxy-β-D-galactopyranosyl}-1H-1,2-pyrazol-1-yl}-5-chloro-2-(trifluoromethyl)benzene], the Kd in test [1] worked out at 330 nM; in test [2], 43 nM.

In the case of `OCC1O[C@@H](c2ccnn2-c2cc(Cl)ccc2C(F)(F)F)C(O)C(n2cc(-c3nc(Cl)cs3)nn2)[C@H]1O` (stereo partly drawn) [Example 11, 1-{5-{3-[4-(4-Chlorothiazol-2-yl)-1H-1,2,3-triazol-1-yl]-3-deoxy-β-D-galactopyranosyl}-1H-1,2-pyrazol-1-yl}-5-chloro-2-(trifluoromethyl)benzene], the Kd in test [1] was 430 nM; in test [2], 48 nM.

Consider `COC1C(n2cc(-c3csc(N)n3)nn2)[C@@H](O)C(CO)O[C@H]1c1ccnn1-c1cc(Cl)ccc1C(F)(F)F` (stereo partly drawn) [Example 34, 1-{5-{3-[4-(2-Aminothiazol-4-yl)-1H-1,2,3-triazol-1-yl]-3-deoxy-2-O-methyl-β-D-galactopyranosyl}-1H-1,2-pyrazol-1-yl}-5-chloro-2-(trifluoromethyl)benzene], for which the Kd in test [1] was found to be 6700 nM; in test [2], 49 nM.

For the compound `C=C(C)c1cc([C@@H]2OC(CO)[C@H](O)C(n3cc(-c4nc(Cl)cs4)nn3)C2OC)n(-c2cc(Cl)ccc2C(F)(F)F)n1` (stereo partly drawn) [Example 27, 1-{5-{3-[4-(4-Chlorothiazol-2-yl)-1H-1,2,3-triazol-1-yl]-3-deoxy-2-O-methyl-β-D-galactopyranosyl}-3-(1-methylethenyl)-1H-1,2-pyrazol-1-yl}-5-chloro-2-(trifluoromethyl)benzene], the Kd turned out to be 1200 nM in test [1] and 540 nM in test [2].

Turning to `COC1C(n2cc(-c3csc(O)n3)nn2)[C@@H](O)C(CO)O[C@H]1c1ccnn1-c1cc(Cl)c(Cl)cc1C(F)(F)F` (stereo partly drawn) [Example 36, 4,5-Dichloro-1-{5-{3-deoxy-3-[4-(2-hydroxythiazol-4-yl)-1H-1,2,3-triazol-1-yl]-2-O-methyl-β-D-galactopyranosyl}-1H-1,2-pyrazol-1-yl}-2-(trifluoromethyl)benzene], the dissociation constant Kd in test [1] was determined as 9400 nM; in test [2], 26 nM.

Consider `COC1C(n2cc(-c3nc(Cl)cs3)nn2)[C@@H](O)C(CO)O[C@H]1c1ccnn1-c1cc(Cl)c(Cl)cc1C(F)(F)F` (stereo partly drawn) [Example 21, 1-{5-{3-[4-(4-Chlorothiazol-2-yl)-1H-1,2,3-triazol-1-yl]-3-deoxy-2-O-methyl-β-D-galactopyranosyl}-1H-1,2-pyrazol-1-yl}-4,5-dichloro-2-(trifluoromethyl)benzene], for which the Kd worked out at 1100 nM in test [1] and 35 nM in test [2].

For `COC1C(n2cc(-c3nccs3)nn2)[C@@H](O)C(CO)O[C@H]1c1ccnn1-c1cc(Cl)ccc1C(F)(F)F` (stereo partly drawn) [Example 2, 5-Chloro-1-{5-{3-deoxy-2-O-methyl-3-[4-(2-thiazolyl)-1H-1,2,3-triazol-1-yl]-β-D-galactopyranosyl}-1H-1,2-pyrazol-1-yl}-2-(trifluoromethyl)benzene], the Kd in test [1] was found to be 7560 nM; in test [2] it was 170 nM.

Take `OCC1O[C@@H](c2ccnn2-c2cc(Cl)ccc2C(F)(F)F)C(O)C(n2cc(-n3ccc(Cl)n3)nn2)[C@H]1O` (stereo partly drawn) [Example 8, 1-{5-{3-[4-(3-Chloro-1H-1,2-pyrazol-1-yl)-1H-1,2,3-triazol-1-yl]-3-deoxy-β-D-galactopyranosyl}-1H-1,2-pyrazol-1-yl}-5-chloro-2-(trifluoromethyl)benzene]: the results for the Kd in test [1] and in test [2] were 880 nM and 270 nM, respectively.

`COC1C(n2cc(-c3nc(Cl)cs3)nn2)[C@@H](O)C(CO)O[C@H]1c1ccnn1-c1cc(Br)ccc1C(F)(F)F` (stereo partly drawn) [Example 20, 5-Bromo-1-{5-{3-[4-(4-chlorothiazol-2-yl)-1H-1,2,3-triazol-1-yl]-3-deoxy-2-O-methyl-β-D-galactopyranosyl}-1H-1,2-pyrazol-1-yl}-2-(trifluoromethyl)benzene]: the values for the Kd in test [1] and in test [2] were 410 nM and 31 nM, respectively.

For the compound `COC1C(n2cc(-c3ncc(C)s3)nn2)[C@@H](O)C(CO)O[C@H]1c1ccnn1-c1cc(Cl)ccc1C(F)(F)F` (stereo partly drawn) [Example 3, 5-Chloro-1-{5-{3-deoxy-3-[4-(5-methylthiazol-2-yl)-1H-1,2,3-triazol-1-yl]-2-O-methyl-β-D-galactopyranosyl}-1H-1,2-pyrazol-1-yl}-2-(trifluoromethyl)benzene], the figures for the Kd in test [1] and in test [2] were 440 nM and 470 nM, respectively.

Take `COC1C(n2cc(-c3csc(O)n3)nn2)[C@@H](O)C(CO)O[C@H]1c1ccnn1-c1cc(Br)c(F)cc1C(F)(F)F` (stereo partly drawn) [Example 37, 5-Bromo-1-{5-{3-deoxy-3-[4-(2-hydroxythiazol-4-yl)-1H-1,2,3-triazol-1-yl]-2-O-methyl-β-D-galactopyranosyl}-1H-1,2-pyrazol-1-yl}-4-fluoro-2-(trifluoromethyl)benzene]: the Kd in test [1] was determined as 4700 nM; in test [2], 17 nM.

For `Nc1nc(-c2cn(C3C(O)[C@H](c4ccnn4-c4cc(Cl)ccc4C(F)(F)F)OC(CO)[C@@H]3O)nn2)cs1` (stereo partly drawn) [Example 6, 1-{5-{3-[4-(2-Aminothiazol-4-yl)-1H-1,2,3-triazol-1-yl]-3-deoxy-β-D-galactopyranosyl}-1H-1,2-pyrazol-1-yl}-5-chloro-2-(trifluoromethyl)benzene], the values for the Kd in test [1] and in test [2] were 10800 nM and 120 nM, respectively.

Regarding `COC1C(n2cc(-c3nc(Cl)cs3)nn2)[C@@H](O)C(CO)O[C@H]1c1ccnn1-c1ccc2nc(C)sc2c1` (stereo partly drawn) [Example 16, 1-{5-{3-[4-(4-Chlorothiazol-2-yl)-1H-1,2,3-triazol-1-yl]-3-deoxy-2-O-methyl-β-D-galactopyranosyl}-1H-1,2-pyrazol-1-yl}-2-methylbenzothiazole], the Kd came to 1500 nM in test [1] and 38 nM in test [2].

As to `OCC1O[C@@H](c2ccnn2-c2cc(Cl)ccc2C(F)(F)F)C(O)C(n2cc(-c3csc(O)n3)nn2)[C@H]1O` (stereo partly drawn) [Example 7, 5-Chloro-1-{5-{3-deoxy-3-[4-(2-hydroxythiazol-4-yl)-1H-1,2,3-triazol-1-yl]-β-D-galactopyranosyl}-1H-1,2-pyrazol-1-yl}-2-(trifluoromethyl)benzene], the Kd in test [1] was determined as 5830 nM; in test [2], 29 nM.

For `COC1C(n2cc(-c3cscn3)nn2)[C@@H](O)C(CO)O[C@H]1c1ccnn1-c1cc(Cl)ccc1C(F)(F)F` (stereo partly drawn) [Example 38, 5-Chloro-1-{5-{3-deoxy-2-O-methyl-3-[4-(4-thiazolyl)-1H-1,2,3-triazol-1-yl]-β-D-galactopyranosyl}-1H-1,2-pyrazol-1-yl}-2-(trifluoromethyl)benzene], the Kd came out at 4900 nM in test [1] and 120 nM in test [2].

For the compound `COC1C(n2cc(-c3nc(Cl)cs3)nn2)[C@@H](O)C(CO)O[C@H]1c1ccnn1-c1cc(Cl)ccc1C(F)(F)F` (stereo partly drawn) [Example 1, 1-{5-{3-[4-(4-Chlorothiazol-2-yl)-1H-1,2,3-triazol-1-yl]-3-deoxy-2-O-methyl-β-D-galactopyranosyl}-1H-1,2-pyrazol-1-yl}-5-chloro-2-(trifluoromethyl)benzene], the Kd in test [1] is 450 nM; in test [2], 36 nM.

`COC1C(n2cc(-c3nc(Cl)cs3)nn2)[C@@H](O)C(CO)O[C@H]1c1cc(C)nn1-c1cc(Cl)ccc1C(F)(F)F` (stereo partly drawn) [Example 13, 1-{5-{3-[4-(4-Chlorothiazol-2-yl)-1H-1,2,3-triazol-1-yl]-3-deoxy-2-O-methyl-β-D-galactopyranosyl}-3-methyl-1H-1,2-pyrazol-1-yl}-5-chloro-2-(trifluoromethyl)benzene]: the Kd came out at 290 nM in test [1] and 36 nM in test [2].

`COC1C(n2cc(-c3nc(Cl)cs3)nn2)[C@@H](O)C(CO)O[C@H]1c1cc(Cl)nn1-c1cc(Cl)ccc1C(F)(F)F` (stereo partly drawn) [Example 25, 1-{5-{3-[4-(4-Chlorothiazol-2-yl)-1H-1,2,3-triazol-1-yl]-3-deoxy-2-O-methyl-β-D-galactopyranosyl}-3-chloro-1H-1,2-pyrazol-1-yl}-5-chloro-2-(trifluoromethyl)benzene]: the Kd worked out at 180 nM in test [1] and 40 nM in test [2].

The values are drawn from patent publication US20240132531A1, “NOVEL GALACTOSIDE INHIBITOR OF GALECTINS” (GALECTO BIOTECH AB, priority 2020, published 2024).
